In the NIST ThermoML archive (doi:10.1016/j.jct.2007.03.012):

Test: xn = mol fraction of the nth substance listed
Details: Liquid, Bellows volumetry

CC(C)C [2-methylpropane] + CCC
mass density [kg/m3]
Details | 360 K | 380 K | 400 K | 420 K | 440 K
5000 kPa, x2 = 0.2765 | – | – | 353.34 | – | –
5000 kPa, x2 = 0.5052 | – | 390.11 | – | – | –
10000 kPa, x2 = 0.2765 | – | – | 418.11 | – | –
10000 kPa, x2 = 0.5052 | – | 433.73 | 396.98 | 353.95 | –
10000 kPa, x2 = 0.7468 | – | – | 370.08 | – | –
20000 kPa, x2 = 0.2765 | – | – | 464.84 | – | 418.57
20000 kPa, x2 = 0.5052 | – | 473.66 | 450.18 | 426.22 | 401.72
20000 kPa, x2 = 0.7468 | 481.36 | – | 432.58 | – | 381.56
30000 kPa, x2 = 0.2765 | 528.67 | – | 491.48 | – | 455.11
30000 kPa, x2 = 0.5052 | 517.29 | 498.04 | 478.86 | 459.76 | 441.26
30000 kPa, x2 = 0.7468 | 503.41 | – | 463.78 | – | 424.79
40000 kPa, x2 = 0.2765 | 543.99 | – | 510.96 | – | 479.61
40000 kPa, x2 = 0.5052 | 533.27 | 516.11 | 499.19 | 482.81 | 467.04
40000 kPa, x2 = 0.7468 | 520.23 | – | 485.32 | – | 452.26
50000 kPa, x2 = 0.2765 | 556.8 | – | 526.54 | – | 498.3
50000 kPa, x2 = 0.5052 | 546.45 | 530.72 | 515.41 | 500.59 | 486.62
50000 kPa, x2 = 0.7468 | 534.15 | – | 502.4 | – | 472.75
60000 kPa, x2 = 0.2765 | 567.78 | – | 539.61 | – | 513.76
60000 kPa, x2 = 0.5052 | 557.79 | 543.03 | 528.8 | 515.22 | 502.39
60000 kPa, x2 = 0.7468 | 545.73 | – | 516.38 | – | 489.17
70000 kPa, x2 = 0.2765 | 577.53 | – | 550.88 | – | 526.7
70000 kPa, x2 = 0.5052 | 567.64 | 553.8 | 540.38 | 527.71 | 515.83
70000 kPa, x2 = 0.7468 | 555.96 | – | 528.32 | – | 503.08
80000 kPa, x2 = 0.2765 | 586.26 | – | 560.85 | – | 538.18
80000 kPa, x2 = 0.5052 | 576.76 | 563.25 | 550.76 | 538.65 | 527.49
80000 kPa, x2 = 0.7468 | 565.01 | – | 538.83 | – | 515.14
90000 kPa, x2 = 0.2765 | 594.28 | – | 570.04 | – | 548.29
90000 kPa, x2 = 0.5052 | 584.67 | 572.07 | 559.81 | 548.42 | 537.76
90000 kPa, x2 = 0.7468 | 573.12 | – | 548.28 | – | 525.87
100000 kPa, x2 = 0.2765 | 601.6 | – | 578.09 | – | 557.44
100000 kPa, x2 = 0.5052 | 592.18 | 579.89 | 568.28 | 557.24 | 547.21
100000 kPa, x2 = 0.7468 | 580.81 | – | 557.19 | – | 535.38
120000 kPa, x2 = 0.2765 | 614.72 | – | 592.86 | – | 573.52
120000 kPa, x2 = 0.5052 | 605.4 | 593.88 | 583.05 | 572.89 | 563.63
120000 kPa, x2 = 0.7468 | 594.3 | – | 571.88 | – | 552.06
140000 kPa, x2 = 0.2765 | 626.08 | – | 605.66 | – | 587.48
140000 kPa, x2 = 0.5052 | 617.13 | 606.29 | 595.97 | 586.39 | 577.64
140000 kPa, x2 = 0.7468 | 606.32 | – | 584.98 | – | 566.38
160000 kPa, x2 = 0.2765 | 636.59 | – | 616.77 | – | 599.81
160000 kPa, x2 = 0.5052 | 627.68 | 617.17 | 607.43 | 598.41 | 590.03
160000 kPa, x2 = 0.7468 | 616.85 | – | 596.72 | – | 579.07
180000 kPa, x2 = 0.2765 | 645.76 | – | 626.93 | – | 610.74
180000 kPa, x2 = 0.5052 | 637.18 | 627.17 | 617.7 | 609.2 | 601.17
180000 kPa, x2 = 0.7468 | 626.62 | – | 606.99 | – | 590.35
200000 kPa, x2 = 0.2765 | 654.56 | – | 636.12 | – | 620.79
200000 kPa, x2 = 0.5052 | 645.89 | 636.19 | 627.01 | 619.16 | 611.27
200000 kPa, x2 = 0.7468 | 635.27 | – | 616.65 | – | 600.48
